From US20070297980A1, “Geldanamycin and Derivatives Inhibit Cancer Invasion and Identify Novel Targets” (priority 2004, published 2007)
“Also recorded” adds a separate entry of the source.

How the values were obtained:
[1] = tested on: HGF/SF-induced uPA-plasmin activity in MDCK cells; test: HGF/SF-Met-uPA-plasmin cell-based assay, MDCK cells; design: species or system canine; settings: for concentration level at which HGF/SF-induced uPA activity is inhibited: words
[2] = tested on: HGF/SF-induced cell scattering in MDCKG3 cells; test: Scatter assay, MDCKG3 cells (maintained in MA); assay type: cell-based, canine; settings: MDCKG3 cells maintained in 3×10^−6 M MA; GA tested 10^−7 to 10^−15 M
Protocol: (§1) Scatter Assay. In parallel with assessing uPA activity, 96-well plates of MDCK cells were used to detect cell scattering. Cell preparation was same as above (plasmin assay) described above. At the same time as uPA activity was measured, the cells being assayed for scatter were fixed, stained (Diff-Quik Set, Dade Behring AG) and photographed.

[3] = tested on: HGF/SF-induced Matrigel invasion by DBTRG cells; test: In vitro Matrigel invasion assay, DBTRG; assay type: cell-based, human; settings: even at pM-fM concentrations
Protocol: (§2) In Vitro Cell Invasion Assay. The in vitro invasion assay was performed as previously described by Jeffers et al., 1996, using a 24-well invasion chamber coated with GFR-Matrigel® (Becton Dickinson). Cells were suspended in DMEM/0.1% BSA and were plated in the invasion (upper) chamber (5−25×10^3 cells/well) (DBTRG 5,000, SNB19 and U373 25,000 cells/well). The lower chamber was filled with DMEM/0.1% BSA with or without the addition of HGF/SF (100 ng/ml). To evaluate GA inhibition, GA was serially diluted into both the upper and lower chambers at final concentrations 1 μM, to 1 fM as indicated and immediately after HGF/SF addition. After 24 h, cells remaining in the upper chamber were removed by scraping. The cells that invaded through the Matrigel® and attached to the lower surface of the insert were stained using Diff-Quik (Dade Behring Inc.) and counted under a light microscope.

[4] = tested on: HGF/SF-induced Matrigel invasion by SNB19 cells; test: In vitro Matrigel invasion assay, SNB19; assay type: cell-based, human; settings: even at pM-fM concentrations
Protocol: as §2

[5] = tested on: HGF/SF-induced Matrigel invasion by U373 cells; test: In vitro Matrigel invasion assay, U373; assay type: cell-based, human; settings: even at pM-fM concentrations
Protocol: as §2

Met expression = test: Western blot, Met expression; assay type: cell-based; design: effect on Met expression: dose or concentration left out as unconfirmed; settings: for Met abundance upon acute challenge: 24 hrs, MDCKG1-G3 cells chronically exposed to MA; for effect on Met expression: MDCK and DBTRG cells
Protocol: (§3) Western Blot and Expression of Met and other Proteins. Cells were seeded in 60×15 mm dishes at 10^5 cells per dish. HGF/SF (100 ng/ml) was added to each dish 24 hr later. Immediately thereafter, serially diluted GA or MA was added to the relevant dishes at the concentrations indicated, and incubated for the indicated length of time before lysis. For Met and MAPK phosphorylation detection, 10^5 cells were seeded in 60×15 mm dishes and serum-starved for 24 hrs. After HGF/SF (100 ng/ml) stimulation, cells were lysed at 10 and 30 min. Control cells were not given HGF/SF. After cell lysis, protein concentration was determined by DC protein assay (Bio-Rad), and equal quantities of protein were loaded and separated by SDS-PAGE and transferred in a Western blot to PVDF membranes (Invitrogen). After blocking with 5% dry milk, membranes were blotted with specific antibodies.
After cells grew to 80% confluence, GA or MA, at various concentrations was added to the dishes. After 24 hours, cells were washed twice with PBS and lysed in TNESV buffer supplemented with Complete™ proteinase inhibitors (Roche Molecular Biochemicals). Protein concentration was determined by DC protein assay. Equal quantities of protein were used for Western blotting for Met and HSP90α. For pull-down assays, 20 μl of control or GA beads adjusted for equal concentrations were added to […] of extract and rotated at 4° C. overnight. Beads were recovered by low speed centrifugation and washed 3× with TNESV. Sixty μl 2× sample buffer was added to beads and boiled for 10 min. The samples were subjected to SDS-PAGE followed by Western blot analysis.

[6] = tested on: HGF/SF-induced uPA activity in U373 cells; test: HGF/SF-Met-uPA-plasmin cell-based assay, U373 cells; design: species or system human
Protocol: (§4) HGF/SF-Met-uPA-Plasmin Cell-Based Assay (Webb et al., supra). Cells were seeded in 96-well plates at 1500 cells/well (with the exception of SK-LMS-1 cells, which were seeded at 5000 cells/well) in order to detect color intensity, either with MTS (Promega) for cell growth determination or via Chromozyme PL (Boehringer Mannheim) for uPA-plasmin activity measurement. Cells were grown overnight in DMEM/10% FBS as described previously. Drugs were dissolved in DMSO and serially diluted from stock concentrations into DMEM/10% FBS medium and added to the appropriate wells. Immediately after drug or reagent addition, HGF/SF (60 ng/ml) was added to all wells (with the exception of wells used as controls to calculate basal growth and uPA-plasmin activity levels). Twenty-four hours after drug and HGF/SF addition, plates were processed for the determination of uPA-plasmin activity as follows: Wells were washed twice with DMEM (without phenol red; Life Technologies, Inc.), and 200 μl of reaction buffer [50% (v/v) 0.05 units/ml plasminogen in DMEM (without phenol red), 40% (v/v) 50 mM Tris buffer (pH 8.2), and 10% (v/v) 3 mM Chromozyme PL (Boehringer Mannheim) in 100 mM glycine solution] were added to each well. […]

[7] = tested on: HGF/SF-induced MDCK cell scattering; test: Scatter assay, MDCK cells; assay type: cell-based, canine
Protocol: as §1

[8] = preliminary reports; Neckers et al; Sausville et al; cited from earlier work
[9] = Egorin M J et al., 2002; cited from earlier work
[10] = tested on: cell proliferation (DBTRG, U373, SNB19 cells); test: Proliferation assay (MTS); assay type: cell-based, human; settings: cell line not stated
Protocol: Proliferation Assay. In parallel with uPA-plasmin detection assay, cell proliferation in 96-well plates was detected with MTS. […] The plates were then incubated at 37° C., in a 5% CO2 atmosphere for 4 h. The absorbance was read on an automated spectrophotometric plate reader at 490 nm.

MDCK cells = test: Long-term culture of MDCK cells in macbecin II; assay type: cell-based, canine
Protocol: All compounds were first diluted in DMSO at 0.01M, separated into small stock aliquots (5 μl) and kept at −80° C. until use. When used, stocks were thawed and serially diluted with DMEM/10% FBS. For long term culture with MA, conditioned medium with the compound at 1, 2, or 3×10^−6 M was changed at least twice a week.

HSP90α expression = test: Western blot, HSP90α expression; assay type: cell-based; settings: MDCK and DBTRG cells
Protocol: as §3
After cells grew to 80% confluence, GA or MA, at various concentrations was added to the dishes. After 24 hours, cells were washed twice with PBS and lysed in TNESV buffer supplemented with Complete™ proteinase inhibitors (Roche Molecular Biochemicals). Protein concentration was determined by DC protein assay. Equal quantities of protein were used for Western blotting for Met and HSP90α. […]

HSP90α = test: GA-affinity bead pull-down (solid-phase binding assay); settings: MDCK and DBTRG lysates
[11] = tested on: uPA activity in DBTRG cells; test: HGF/SF induction of uPA activity, DBTRG cells; assay type: cell-based, human; settings: peak uPA induction after HGF/SF to basal
Protocol: as §4

[12] = tested on: uPA activity in SNB19 cells; test: HGF/SF induction of uPA activity, SNB19 cells; assay type: cell-based, human; settings: peak uPA induction after HGF/SF to basal
Protocol: as §4

[13] = tested on: uPA activity in U118 cells; test: HGF/SF induction of uPA activity, U118 cells; assay type: cell-based, human; settings: peak uPA induction after HGF/SF to basal
Protocol: as §4

[14] = tested on: uPA activity in U87 cells; test: HGF/SF induction of uPA activity, U87 cells; assay type: cell-based, human; settings: peak uPA induction after HGF/SF to basal
Protocol: (§5) Cells were seeded in 96-well plates at 1500 cells/well (with the exception of SK-LMS-1 cells, which were seeded at 5000 cells/well) in order to detect color intensity, either with MTS (Promega) for cell growth determination or via Chromozyme PL (Boehringer Mannheim) for uPA-plasmin activity measurement. Cells were grown overnight in DMEM/10% FBS as described previously. Drugs were dissolved in DMSO and serially diluted from stock concentrations into DMEM/10% FBS medium and added to the appropriate wells. Immediately after drug or reagent addition, HGF/SF (60 ng/ml) was added to all wells (with the exception of wells used as controls to calculate basal growth and uPA-plasmin activity levels). Twenty-four hours after drug and HGF/SF addition, plates were processed for the determination of uPA-plasmin activity as follows: Wells were washed twice with DMEM (without phenol red; Life Technologies, Inc.), and 200 μl of reaction buffer [50% (v/v) 0.05 units/ml plasminogen in DMEM (without phenol red), 40% (v/v) 50 mM Tris buffer (pH 8.2), and 10% (v/v) 3 mM Chromozyme PL (Boehringer Mannheim) in 100 mM glycine solution] were added to each well. […]

[15] = tested on: uPA activity in SW1874 cells; test: HGF/SF induction of uPA activity, SW1874 cells; assay type: cell-based, human; settings: peak uPA induction after HGF/SF to basal
Protocol: as §5

[16] = tested on: uPA activity in SK-LMS-1 cells; test: HGF/SF induction of uPA activity, SK-LMS-1 cells; assay type: cell-based, human; settings: peak uPA induction after HGF/SF to basal
Protocol: as §5

[17] = tested on: uPA activity in DU145 cells; test: HGF/SF induction of uPA activity, DU145 cells; assay type: cell-based, human; settings: peak uPA induction after HGF/SF to basal
Protocol: as §5

[18] = tested on: uPA activity in PC-3 cells; test: HGF/SF induction of uPA activity, PC-3 cells; assay type: cell-based, human; settings: peak uPA induction after HGF/SF to basal
Protocol: as §4

## COC1=C2C[C@@H](C)C[C@H](OC)[C@H](O)[C@@H](C)/C=C(\C)[C@H](OC(N)=O)[C@@H](OC)/C=C\C=C(/C)C(=O)NC(=CC1=O)C2=O [Compound 1, (+)-Geldanamycin]
[1]; MDCK cells
  activity in HGF/SF-induced uPA-plasmin cell-based assays (words): active
[2]
  GA concentration at which scattering was again fully observed: 10^−15 M
[3]
  effect on HGF/SF-induced Matrigel invasion: abolished
[4]
  effect on HGF/SF-induced Matrigel invasion: abolished
[5]
  effect on HGF/SF-induced Matrigel invasion: abolished
Met expression; 10^−6 M GA
  Met abundance upon acute challenge: dramatic decreases
Met expression; GA at nM levels
  effect on Met expression: downregulates

## CO[C@H]1[C@@H](OC)C[C@H](C)[C@@H](OC)C2=CC(=O)C=C(NC(=O)/C(C)=C/C=C\[C@H](C)[C@@H](OC(N)=O)/C(C)=C/[C@@H]1C)C2=O [Compound 2, Macbecin I, reference compound]
[1]; MDCK cells
  activity in HGF/SF-induced uPA-plasmin cell-based assays (words): inactive
[1]; MDCK cells, listed as macbecin I
  activity in HGF/SF-induced uPA-plasmin cell-based assays (words): poor activity

## C[C@@H]1C[C@H]2O[C@@H]2/C=C\C=C\C(=O)Cc2c(Cl)c(O)cc(O)c2C(=O)O1 [Compound 3, Radicicol, reference compound]
[1]; MDCK cells
  activity in HGF/SF-induced uPA-plasmin cell-based assays (words): poor activity; also recorded: inactive
[1]
  concentration level at which HGF/SF-induced uPA activity is inhibited: only at nanomolar levels
[1]; listed as RA
  concentration level at which HGF/SF-induced uPA activity is inhibited: only at nM or higher concentrations

## C=CCNC1=C2C[C@@H](C)C[C@H](OC)[C@H](O)[C@@H](C)/C=C(\C)[C@H](OC(N)=O)[C@@H](OC)/C=C\C=C(/C)C(=O)NC(=CC1=O)C2=O [Compound 4, 17-Allylamino-17-demethoxygeldanamycin]
[1]; MDCK cells
  lowest concentration at which inhibitory effects on uPA activity observed: 10^−17 M
  activity in HGF/SF-induced uPA-plasmin cell-based assays (words): active
[6]; U373 cells
  lowest concentration at which inhibitory effects on uPA activity observed: 10^−17 M
[7]; FIG. 10
  concentration range inhibiting HGF/SF-induced MDCK cell scattering: pM to fM range
[8]
  hepatic toxicity in clinical investigations: dose-limiting

## COC1/C=C\C=C(/C)C(=O)NC2=CC(=O)C(NCCN(C)C)=C(C[C@@H](C)C[C@H](OC)[C@H](O)[C@@H](C)/C=C(\C)[C@@H]1OC(N)=O)C2=O (some centres unmarked) [Compound 5, 17-(2-Dimethylaminoethyl)amino-17-demethoxygeldanamycin]
[9]
  quantity not named in the sentence ("was essentially 100% when given i.p."): ~100%

## CO[C@H]1/C=C\C=C(/C)C(=O)NC2=CC(=O)C(N3CCC3)=C(C[C@@H](C)C[C@H](OC)[C@H](O)[C@@H](C)/C=C(\C)[C@@H]1OC(N)=O)C2=O [Compound 14, 17-(1-Azetidinyl)-17-demethoxygeldanamycin]
[1]; MDCK cells
  activity in HGF/SF-induced uPA-plasmin cell-based assays (words): active

## CO[C@H]1/C=C\C=C(/C)C(=O)NC2=CC(=O)C(N3CCC3)=C(C[C@@H](C)C[C@H](OC)[C@H](OC(C)=O)[C@@H](C)/C=C(\C)[C@@H]1OC(N)=O)C2=O [Compound 18, 11-O-Acetyl-17-(1-azetidinyl)-17-demethoxygeldanamycin]
[1]; MDCK cells
  activity in HGF/SF-induced uPA-plasmin cell-based assays (words): inactive

## CO[C@H]1/C=C\C=C(/C)C(=O)NC2=CC(=O)C(N3CCC3)=C(C[C@@H](C)C[C@H](OC)[C@H](O)[C@@H](C)/C=C(\C)[C@@H]1O)C2=O [Compound 19, 17-(1-Azetidinyl)-7-decarbamyl-17-demethoxygeldanamycin]
[1]; MDCK cells
  activity in HGF/SF-induced uPA-plasmin cell-based assays (words): completely inactive

## COc1c(O)cc2c(O)c1C[C@@H](C)C[C@H](OC)[C@H](O)[C@@H](C)/C=C(\C)[C@H](OC(N)=O)[C@@H](OC)/C=C\C=C(/C)C(=O)N2 [Compound 20, 17,21-Dihydrogeldanamycin]
[1]; MDCK cells
  activity in HGF/SF-induced uPA-plasmin cell-based assays (words): active

## COC1CC(C)C(OC)c2cc(O)cc(c2O)NC(=O)/C(C)=C\C=C/C(C)C(OC(N)=O)/C(C)=C\C(C)C1OC (centres unmarked) [Compound 21, Macbecin II, reference compound]
[1]; MDCK cells
  activity in HGF/SF-induced uPA-plasmin cell-based assays (words): inactive
[1]; MDCK cells, listed as macbecin II
  activity in HGF/SF-induced uPA-plasmin cell-based assays (words): poor activity
[1]
  concentration level at which HGF/SF-induced uPA activity is inhibited: only at nM or higher concentrations
[7]; 3×10^−6 M MA
  effect on HGF/SF-induced scattering of MDCK cells: effectively blocked
[10]
  concentration level at which proliferation is inhibited: nM levels
MDCK cells; MDCK cells maintained for several months
  highest non-toxic concentration: 3 µM
MDCK cells; long-term culture
  MA concentration up to which MDCK cells continued to proliferate: ≤ 3 µM
Met expression; 10^−5 M MA
  Met abundance upon acute challenge: less of a decrease
Met expression; at MA
  effect on Met expression: downregulation
HSP90α expression
  effect on HSP90α expression: up-regulation
HSP90α; cells treated with 10^−5 M MA
  total HSP90α recovered with GA-affinity beads: negligible levels
HSP90α; cells treated with 10^−6 M MA
  HSP90α available to the GA affinity beads: reduced

## HGF/SF: hepatocyte growth factor/scatter factor, ligand of the Met receptor tyrosine kinase
[1]; MDCK, peak uPA induction after HGF/SF (0-60 ng/ml, 24 h) to basal
  uPA activity induction (fold): 4.27 fold
[6]; U373, peak uPA induction after HGF/SF to basal
  uPA activity induction (fold): 1.56 fold
[11]
  uPA activity induction (fold): 2.28 fold
[12]
  uPA activity induction (fold): 1.95 fold
[13]
  uPA activity induction (fold): 1.12 fold
[14]
  uPA activity induction (fold): 1.04 fold
[15]
  uPA activity induction (fold): 0.97 fold
[16]
  uPA activity induction (fold): 2.01 fold
[17]
  uPA activity induction (fold): 1.06 fold
[18]
  uPA activity induction (fold): 1.00 fold
